Tested on: venous thrombosis
Assay: venous thrombosis test in rats, activity via the oral route (venous stasis under hypercoagulation with factor Xa, Wessler technique)
Format: in vivo
Settings: dose 6 mg/kg, thrombosis induced 2 h after administration, male Wistar rats
Experimental: The antithrombotic activity of the compounds according to the invention was studied in vivo in rats by virtue of a test in which a venous thrombosis is reproduced. The venous thrombosis was induced according to the protocol described in Thromb. Haemost., 1992, 67(1), 176-179. The activity via the oral route was studied according to the procedure described below. The experiment is carried out on non-fasting male Wistar rats weighing from 250 to 280 g and divided into groups of 10 animals each. The test products are administered orally (intubation) in solution or in suspension in a 0.5% solution of methylcellulose in water. The concentrations of the compounds are calculated so as to bring about the absorption of an amount of solution of 10 ml/kg orally. A thrombosis is induced at a time T after the administration of the product and the thrombus formed is removed and weighed. In order to induce this thrombosis, a venous stasis is brought about under hypercoagulation, according to the technique described by Wessler (J. Applied Physiol., 1959, 943-946), using a solution of activated factor X (Xa), supplied by Biogenic (Montpellier) and comprising a dose of 7.5 nKat/kg, as hypercoagulant. The venous stasis is brought about 10 seconds exactly after the injection of the hypercoagulant. The activity of the test compounds is monitored at various doses, after they have been administered. The thrombosis is induced 2 hours after the administration of the compound. By way of example, the results of the above tests are given in the following table for a few compounds according to the invention (the activity is expressed by the percentage of inhibition of the formation of the thrombus, observed in the presence of the compound according to the invention, with respect to the weight of the thrombus formed in the absence of the compound).

| SMILES | Activity (percentage of inhibition of the formation of the thrombus, with respect to the weight of the thrombus formed in the absence of the compound) |
| --- | --- |
| O[C@@H]1[C@@H](O)[C@H](Oc2cncc(-c3ccc(Cl)nc3)c2)SC[C@H]1O [Example 30, 5-(6-Chloro-3-pyridinyl)-3-pyridinyl 5-thio-β-D-xylopyranoside] | 97% |
| O[C@@H]1[C@@H](O)[C@H](Oc2ccnc(-c3ccncc3)c2)SC[C@H]1O [Example 130, 2-(4-Pyridinyl)-4-pyridinyl 5-thio-β-D-xylopyranoside] | 91% |
| Cn1cc(-c2ncc(O[C@@H]3SC[C@@H](O)[C@H](O)[C@H]3O)cc2F)cn1 [Example 224, 5-Fluoro-6-(1-methyl-1H-pyrazol-4-yl)-3-pyridinyl 5-thio-β-D-xylopyranoside] | 99% |
| Cc1noc(C)c1-c1ncc(O[C@@H]2SC[C@@H](O)[C@H](O)[C@H]2O)cc1F [Example 226, 6-(3,5-Dimethyl-4-isoxazolyl)-5-fluoro-3-pyridinyl 5-thio-β-D-xylopyranoside] | 97% |
| Cc1cncc(-c2ccc(O[C@@H]3SC[C@@H](O)[C@H](O)[C@H]3O)cn2)c1 [Example 142, 6-(5-Methyl-3-pyridinyl)-3-pyridinyl 5-thio-β-D-xylopyranoside] | 97% |
| O[C@@H]1[C@@H](O)[C@H](Oc2ccc(-c3ccncc3)nc2F)SC[C@H]1O [Example 22, 2-Fluoro-6-(4-pyridinyl)-3-pyridinyl 5-thio-β-D-xylopyranoside] | 100% |
| Cc1oncc1-c1ccc(O[C@@H]2SC[C@@H](O)[C@H](O)[C@H]2O)cn1 [Example 140, 6-(5-Methyl-4-isoxazolyl)-3-pyridinyl 5-thio-β-D-xylopyranoside] | 96% |
| O[C@@H]1[C@@H](O)[C@H](Oc2ccc(-c3cccs3)nc2)SC[C@H]1O [Example 108, 6-(2-Thienyl)-3-pyridinyl 5-thio-β-D-xylopyranoside] | 95% |
| O[C@@H]1[C@@H](O)[C@H](Oc2ccc(-c3ccncc3)nc2)SC[C@H]1O [Example 122, 6-(4-Pyridinyl)-3-pyridinyl 5-thio-β-D-xylopyranoside] | 93% |
| O[C@@H]1[C@@H](O)[C@H](Oc2ccc(-c3cccnc3Cl)nc2)SC[C@H]1O [Example 40, 6-(2-Chloro-3-pyridinyl)-3-pyridinyl 5-thio-β-D-xylopyranoside] | 96% |
| O[C@@H]1[C@@H](O)[C@H](Oc2ccc(-c3ccncc3)nc2Cl)SC[C@H]1O [Example 24, 2-Chloro-6-(4-pyridinyl)-3-pyridinyl 5-thio-β-D-xylopyranoside] | 96% |
